In brackets after ≈: the same amount, converted by molar mass.
How the values were obtained:
[1] = test system: rat uterine smooth muscle; assay: Contraction of rat uterine smooth muscle
[2] = test system: bronchial smooth muscle; details: cited from earlier work
[3] = test system: PGE1-induced smooth muscle contractions; assay: Antagonism of PGE1-induced smooth muscle contractions; details: read-out: antagonizes PGE1-induced smooth muscle contractions, concentration for 50% inhibition
[4] = test system: inflammation; assay: Topical and injectable antiinflammatory activity (general statement); format: in vivo
[5] = test system: croton oil-induced inflammation of rat ears; assay: Topical antiinflammatory activity against croton oil-induced inflammation of rat ears; format: in vivo; details: 2-3 mg/ear
[6] = test system: croton oil-induced inflammation of mouse ears; assay: Topical antiinflammatory activity against croton oil-induced inflammation of mouse ears; format: in vivo; details: 2-3 mg/ear
[7] = test system: adjuvant-induced arthritis in rats; assay: Systemic antiinflammatory activity against adjuvant-induced arthritis in rats; format: in vivo, rat; details: intraperitoneal injection, 50 mg/kg
[8] = test system: gastrin-induced gastric acid secretion; assay: Gastrin-induced gastric acid secretion; details: in vivo
[9] = test system: histamine-induced bronchoconstriction; assay: Histamine-induced bronchoconstriction; details: in vivo

Row | Compound | active as injectable antiinflammatory agent [4] | active as topical antiinflammatory agent [4] | topical antiinflammatory activity [5] | topical antiinflammatory activity [6] | systemic antiinflammatory activity [7] | further results
1 | CCCCC[C@H](O)/C=C/[C@H]1[C@H](O)CC(=O)[C@@H]1CCCCCCC(=O)O [PGE1, reference compound] |  |  |  |  |  | contraction of rat uterine smooth muscle (in words) ([1]; comparator for compound 5): contracts rat uterine smooth muscle; effect on the contracting action of PGF2α [2]: reverses or antagonizes
2 | CCCCCC(O)/C=C/C1CCC(=O)N1CCCCCCC(=O)OC(C)(C)C (stereo not drawn) [Compound 4, Tert-butyl 7-[2-Oxo-5-(3-hydroxy-1-oct-1-enyl)-1-pyrrolidinyl]heptanoate] | active | active | also active, though slightly less so | also active, though slightly less so | also active, though slightly less so | antagonism of the contracting action of compound 5 ([1]; rat uterine smooth muscle, compound 5-induced contraction): is antagonized in this action; IC50 [3]: 10 µg/mL (≈ 25.3 µM)
3 | CCCCC[C@H](O)/C=C/[C@@H]1[C@@H](C/C=C\CCCC(=O)O)[C@@H](O)C[C@H]1O [PGF2 α] |  |  |  |  |  | contracting action [2]: contracting action
4 | CCCCCC(O)/C=C/C1CCC(=O)N1CCCCCCC(=O)O (stereo not drawn) [Compound 5, 7-[2-Oxo-5-(3-hydroxy-1-oct-1-enyl)-1-pyrrolidinyl]-heptanoic Acid] | active | active | has shown activity | has shown activity | has shown activity | contracts rat uterine smooth muscle (concentration) ([1]; in the same way as PGE1): 50 ng/mL; activity in cutting off gastrin-induced gastric acid secretion [8]: has shown activity; activity as antagonist to histamine-induced bronchoconstriction [9]: has shown activity

From US3975399A, “1,5-Disubstituted-2-pyrrolidinones, -3-pyrrolin-2-ones, and -4-pyrrolin-2-ones” (E. I. Du Pont de Nemours and Company, priority 1974, dated 1976)
